{"source": "paper PMC8795197", "about": "“Safety and activity of WX-0593 (Iruplinalkib) in patients with ALK- or ROS1-rearranged advanced non-small cell lung cancer: a phase 1 dose-escalation and dose-expansion trial” (Signal Transduction and Targeted Therapy, 2022)", "key": {"Ba/F3 CD74-ROS1-D2033N": {"test_system": "Ba/F3 CD74-ROS1-D2033N", "test": "Growth of transfected Ba/F3 cells (CellTiter-Glo, 3 days)", "format": "cell-based", "details": "Mus musculus, BaF3", "description": "(§1) Harvest cells during the logarithmic growth period and count cells using blood counting chamber. Adjust cell concentration with culture medium. Add 90µl cell suspensions to two 96-well plates to the final cell density as described before. Incubate the plate overnight in humidified incubator at 37℃ with 5% CO2. Dispense 10µl drug solution (10×) to each well (triplicate for each concentration), and the DMSO final concentration in culture medium is 0.1% [v/v]. Culture the plates for 3 days.On Day 3, Read luminescent using Multi Label Reader. The software of GraphPad Prism was used to calculate IC50. The graphical curves were fitted using a nonlinear regression model with a sigmoidal dose response."}, "Ba/F3 CD74-ROS1-L1951R": {"test_system": "Ba/F3 CD74-ROS1-L1951R", "test": "Growth of transfected Ba/F3 cells (CellTiter-Glo, 3 days)", "format": "cell-based", "details": "Mus musculus, BaF3", "description": "as §1"}, "Ba/F3 CD74-ROS1-S1986F": {"test_system": "Ba/F3 CD74-ROS1-S1986F", "test": "Growth of transfected Ba/F3 cells (CellTiter-Glo, 3 days)", "format": "cell-based", "details": "Mus musculus, BaF3", "description": "as §1"}, "Ba/F3 CD74-ROS1-S1986Y": {"test_system": "Ba/F3 CD74-ROS1-S1986Y", "test": "Growth of transfected Ba/F3 cells (CellTiter-Glo, 3 days)", "format": "cell-based", "details": "Mus musculus, BaF3", "description": "as §1"}, "[1]": {"test_system": "Ba/F3 SLC34A2-ROS1-G2032R", "test": "Growth of transfected Ba/F3 cells (CellTiter-Glo, 3 days)", "format": "cell-based", "details": "Mus musculus, BaF3", "description": "as §1"}, "[2]": {"test_system": "Ba/F3 SLC34A2-ROS1-L2026M", "test": "Growth of transfected Ba/F3 cells (CellTiter-Glo, 3 days)", "format": "cell-based", "details": "Mus musculus, BaF3", "description": "as §1"}, "Ba/F3 SLC34A2-ROS1": {"test_system": "Ba/F3 SLC34A2-ROS1", "test": "Growth of transfected Ba/F3 cells (CellTiter-Glo, 3 days)", "format": "cell-based", "details": "Mus musculus, BaF3", "description": "as §1"}, "Ba/F3 (EML4-ALK-WT)": {"test_system": "Ba/F3 (EML4-ALK-WT)", "test": "Cell proliferation inhibition assay", "format": "cell-based"}, "Ba/F3": {"test_system": "Ba/F3", "test": "Cell proliferation inhibition assay", "format": "cell-based"}, "21 GPCR targets": {"test_system": "21 GPCR targets", "test": "GPCR agonist screening assay", "format": "cell-based", "details": "all 21 GPCR targets", "source_text": "In the agonist screening assay, the activity percent at maximum dose of WX-0593 was all less than 50% for the 21 GPCR targets tested."}, "op-kappa": {"target": "op-kappa (Homo sapiens, UniProt P41145)", "sequence (P41145 whole entry)": "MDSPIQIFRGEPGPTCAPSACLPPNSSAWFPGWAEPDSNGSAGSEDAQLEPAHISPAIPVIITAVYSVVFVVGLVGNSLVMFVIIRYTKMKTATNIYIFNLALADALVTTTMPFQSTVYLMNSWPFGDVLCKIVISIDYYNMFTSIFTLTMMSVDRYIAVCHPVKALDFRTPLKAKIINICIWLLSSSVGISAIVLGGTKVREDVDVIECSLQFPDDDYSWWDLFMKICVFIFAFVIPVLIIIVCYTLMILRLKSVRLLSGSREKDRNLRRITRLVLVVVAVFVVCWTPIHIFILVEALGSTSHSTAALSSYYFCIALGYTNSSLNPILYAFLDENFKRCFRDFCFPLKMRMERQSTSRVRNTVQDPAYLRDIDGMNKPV", "test": "GPCR antagonist screening assay", "format": "cell-based"}, "[3]": {"test_system": "ALK+ human lung cancer LU-01-0015 xenograft", "test": "PDX model, anti-tumor activity", "format": "in vivo", "description": "(§2) The anti-tumor activity of WX-0593 was evaluated in two PDX models. […] WX-0593 was well-tolerated at all concentrations."}, "[4]": {"test_system": "ALK+ human lung cancer LU-01-0319 xenograft", "test": "PDX model, anti-tumor activity", "format": "in vivo", "description": "as §2"}, "[5]": {"test": "Absorption study (IV and oral gavage PK)", "format": "in vivo, Sprague Dawley (SD) rats", "details": "for bioavailability: read-out: absolute bioavailability"}, "[6]": {"test": "Metabolic stability in liver microsomes", "format": "in vitro ADME", "details": "for half-life: read-out: elimination half-life", "source_text": "The objective of this study is to evaluate the metabolic stability of tested drug WX-0593 in CD-1 mice, SD rats, beagles, cynomolgus monkeys, and human liver microsomes."}, "in vivo [7]": {"test": "in vivo", "parameters": "species or system nude mice", "details": "mouse", "description": "The severely toxic dose in 10% of the animals (STD10) in rodents was > 30 mg/kg. At a dose of 10 mg/kg/day, AUC0-24h (Day 28) was 16800 h·ng/mL in males and 17300 h·ng/mL in females, which is 4.5 times and 4.7 times of the exposure at the effective dose in mice (2.5 mg/kg, AUC0-24h: 3700 h·ng/mL). At a dose of 30 mg/kg/day, AUC0-24h (Day 28) was 27100 h·ng/mL in males and 42400 h·ng/mL in females, which is 7.3 times and 11.5 times of the exposure at the effective dose in nude mice (2.5 mg/kg, AUC0-24h: 3700 h·ng/mL)."}, "in vivo [8]": {"test": "in vivo", "details": "male"}, "in vivo [9]": {"test": "in vivo", "details": "cynomolgus monkey, po; for AUC(0-t) / Cmax: 50 mg/kg"}, "[10]": {"test": "Excretion and mass balance after [14C]WX-0593", "details": "0-168 hours"}, "[11]": {"details": "Sprague-Dawley, rat, SD rats liver microsomes"}, "[12]": {"details": "beagle, dog, beagles liver microsomes"}, "[13]": {"details": "cynomolgus monkey, cynomolgus monkeys liver microsomes"}, "[14]": {"details": "mouse, CD-1 mice liver microsomes"}}, "note": "Where two headings read alike, the source gives them in different places.", "data": [{"smiles": "COc1cc(N2CCC3(CCN(C)CC3)CC2)ccc1Nc1ncc(Cl)c(Nc2ccccc2P(C)(C)=O)n1", "note": "[WX-0593]", "values": [{"measurement": "IC50", "setting": "Ba/F3 CD74-ROS1-D2033N", "value": 33.8, "unit": "nM"}, {"measurement": "IC50", "setting": "Ba/F3 CD74-ROS1-L1951R", "value": 626, "unit": "nM"}, {"measurement": "IC50", "setting": "Ba/F3 CD74-ROS1-S1986F", "value": 22.4, "unit": "nM"}, {"measurement": "IC50", "setting": "Ba/F3 CD74-ROS1-S1986Y", "value": 15.9, "unit": "nM"}, {"measurement": "IC50", "setting": "[1]", "value": 584, "unit": "nM"}, {"measurement": "IC50", "setting": "[2]", "value": 12, "unit": "nM"}, {"measurement": "IC50", "setting": "Ba/F3 SLC34A2-ROS1", "value": 11, "unit": "nM"}, {"measurement": "growth inhibition", "setting": "Ba/F3 (EML4-ALK-WT)", "value": "significantly inhibits the growth"}, {"measurement": "IC50 relative to ALK-related cells", "setting": "Ba/F3", "value": "significantly higher"}, {"measurement": "activity percent at maximum dose (agonist)", "setting": "21 GPCR targets", "value": "less than 50%"}, {"measurement": "EC50", "setting": "21 GPCR targets; highest dose detected", "value": "> 133000", "unit": "nM"}, {"measurement": "IC50", "setting": "op-kappa", "value": "> 10000", "unit": "nM"}, {"measurement": "anti-tumor activity", "setting": "[3]; 15 mg/kg, 10 mg/kg (D0–D7)/2.5 mg/kg (D8–D27), 5 mg/kg", "value": "significant anti-tumor activity"}, {"measurement": "body weight", "setting": "[3]; all treatment arms", "value": "no significant decrease in weight"}, {"measurement": "anti-tumor activity", "setting": "[4]; 1, 2.5 and 5 mg/kg", "value": "good anti-tumor activity"}, {"measurement": "mean body weight", "setting": "[4]; all treatment arms", "value": "no significant decrease in mean weight"}, {"measurement": "Tmax", "setting": "[5]; both sexes, Sprague-Dawley, rat, plasma, oral gavage 2–24 mg/kg", "value": "2.08 to 2.75", "unit": "h"}, {"measurement": "half-life", "setting": "[5]; both sexes, Sprague-Dawley, rat, plasma, oral gavage 2–24 mg/kg, read-out: plasma terminal half-life", "value": "3.14 to 3.7", "unit": "h"}, {"measurement": "AUC(0-inf)", "setting": "[5]; both sexes, Sprague-Dawley, rat, plasma, single IV 2 mg/kg", "value": "1560 ± 348", "unit": "ng·h/mL"}, {"measurement": "Vd", "setting": "[5]; both sexes, Sprague-Dawley, rat, plasma, single IV 2 mg/kg, read-out: apparent volume of distribution (Vdss)", "value": "5.23 ± 0.942", "unit": "L/kg"}, {"measurement": "MRT inf", "setting": "[5]; both sexes, Sprague-Dawley, rat, plasma, single IV 2 mg/kg, read-out: mean residence time (MRT0-inf)", "value": "3.96 ± 0.355", "unit": "h"}, {"measurement": "clearance", "setting": "[5]; both sexes, Sprague-Dawley, rat, plasma, single IV 2 mg/kg, read-out: plasma clearance (CL)", "value": "22.2 ± 4.67", "unit": "mL/min/kg"}, {"measurement": "half-life", "setting": "[5]; both sexes, Sprague-Dawley, rat, plasma, single IV 2 mg/kg, read-out: plasma elimination half-life T1/2 (converted)", "value": "3.58 ± 0.652", "unit": "h"}, {"measurement": "bioavailability", "setting": "[5]; both sexes, Sprague-Dawley, rat, plasma, single oral gavage 2 mg/kg", "value": 36.9, "unit": "%"}, {"measurement": "bioavailability", "setting": "[5]; both sexes, Sprague-Dawley, rat, plasma, single oral gavage 24 mg/kg", "value": 69.6, "unit": "%"}, {"measurement": "drug accumulation", "setting": "[5]; oral 8 mg/kg, 7 consecutive days", "value": "no significant drug accumulation"}, {"measurement": "CL as % of hepatic blood flow in rats", "setting": "[5]; single IV 2 mg/kg", "value": 40.3, "unit": "%"}, {"measurement": "absolute bioavailability", "setting": "[5]; single oral gavage 8 mg/kg", "value": 64.7, "unit": "%"}, {"measurement": "CLint scaled", "setting": "[6]; [11]", "value": "< 17.3", "unit": "mL/min/kg"}, {"measurement": "half-life", "setting": "[6]; [11]", "value": "> 2.42", "unit": "h"}, {"measurement": "CLint scaled", "setting": "[6]; [12]", "value": 14.7, "unit": "mL/min/kg"}, {"measurement": "half-life", "setting": "[6]; [12]", "value": 2.27, "unit": "h"}, {"measurement": "CLint scaled", "setting": "[6]; [13]", "value": "< 13", "unit": "mL/min/kg"}, {"measurement": "half-life", "setting": "[6]; [13]", "value": "> 2.42", "unit": "h"}, {"measurement": "CLint scaled", "setting": "[6]; human liver microsomes", "value": "< 9.5", "unit": "mL/min/kg"}, {"measurement": "half-life", "setting": "[6]; human liver microsomes", "value": "> 2.42", "unit": "h"}, {"measurement": "CLint scaled", "setting": "[6]; [14]", "value": 52.3, "unit": "mL/min/kg"}, {"measurement": "half-life", "setting": "[6]; [14]", "value": 1.75, "unit": "h"}, {"measurement": "murine effective dose", "setting": "in vivo [7]", "value": 2.5, "unit": "mg/kg"}, {"measurement": "AUC(0-t)", "setting": "in vivo [7]; nude, 2.5 mg/kg", "value": 3700, "unit": "ng·h/mL"}, {"measurement": "mutagenic activity", "setting": "Mutagenicity study", "value": "no mutagenic activity"}, {"measurement": "MTD", "setting": "in vivo [8]", "value": 200, "unit": "mg/kg"}, {"measurement": "MTD", "setting": "in vivo [9]", "value": 50, "unit": "mg/kg"}, {"measurement": "AUC(0-t)", "setting": "in vivo [9]; female", "value": 50600, "unit": "ng·h/mL"}, {"measurement": "Cmax", "setting": "in vivo [9]; female", "value": 4010, "unit": "ng/mL"}, {"measurement": "AUC(0-t)", "setting": "in vivo [9]; male", "value": 35000, "unit": "ng·h/mL"}, {"measurement": "Cmax", "setting": "in vivo [9]; male", "value": 2180, "unit": "ng/mL"}, {"measurement": "dose excreted in feces", "setting": "[10]", "value": 85.84, "unit": "%"}, {"measurement": "dose excreted in urine", "setting": "[10]", "value": 9.36, "unit": "%"}, {"measurement": "dose in cage rinses and washes", "setting": "[10]", "value": 1.51, "unit": "%"}, {"measurement": "mean radioactivity recovery rate", "setting": "[10]; single oral [14C]WX-0593 8 mg/kg", "value": 96.71, "unit": "%"}]}]}
